Experimental data as given in patent publication US8404665B2, “In vivo use of glutathione S-transferase activated nitric oxide donors” (University of Utah Research Foundation, priority 2002, dated 2013).
Where two headings read alike, the source gives them in different places.

System: HL-60 cells
Experiment: HL-60 leukemia cell growth (Coulter counter or MTT assay)
Type: cell-based, human
Conditions: for IC50: Homo sapiens; for effect on cell growth: HL-60, NAC 0.3-0.5 mM or BSO 0.2-0.3 mM alone; for inhibition of cell growth: HL-60 screen
Method: Cell Lines and Culture Conditions. HL-60, DLD1, and U937 cells were obtained from ATCC (Rockville, Md.). Meth A cells were from Dr. Wolfram Samlowski (University of Utah, Salt Lake City, Utah). The PPC-1 cell line was provided by Dr. Graeme Bolger (University of Alabama, Birmingham, Ala.). For the cell growth and apoptosis experiments, cells were cultured at a density of 150,000 cells/ml in RPMI-1640 with 10% fetal bovine serum at 37° C. in a 5% CO2 humidified atmosphere. Agents were added at the indicated concentrations 24 h after culture initiation. At the indicated time intervals, cells were harvested and washed twice in phosphate buffered saline (PBS) prior to processing for analysis of growth, differentiation, and apoptosis.
Cell Growth, Differentiation and Apoptosis Assays. The number of viable cells was determined using the MTT assay according to the manufacturer's protocol (Promega, Madison, Wis.) or using a Coulter counter. Briefly, a MTT assay is an analytical technique that uses the dye dimethylthiazolyl-diphenyltetrazolium (MTT) which turns from yellow to brownish-purple as it is reduced in the mitochondria of living cells. The assay is useful in calorimetric quantitation of cell viability and proliferation. In contrast, cell differentiation was evaluated using Wright and Non-Specific Esterase (NSE) staining of cells collected on microscope slides by cytospin as previously described (Magrinat, G. et al. (1992) Blood 80: 1880-1884). Apoptosis was assayed by flow cytometry and by determining DNA fragmentation using agarose gel electrophoresis as previously described (Shami, P. J. et al. (1998) Leukemia 12: 1461-1466). For the flow cytometry assay, we used the propidium iodide staining method of Nicoletti et al. (Nicoletti, I. et al. (1991) J. Immunol. Methods 139: 271-279).
For the initial screen, HL60 cells were cultured in triplicate in RPMI1640/10% FBS under standard conditions. Compounds were added to the cultures at the following concentrations: 0, 0.1, 1, 10, and 100 micromolar (uM). Three days after addition of the compounds cell growth was determined either using a Coulter counter or using the MTT assay.
The antiproliferative effects in the human AML (Acute Myeloid Leukemia) cell lines, HL-60 (myeloid leukemia) and U937 (monoblastic leukemia) cells were treated with JS-K for a period of 3 days, upon which cell growth was evaluated using a Coulter counter (CITY, STATE). JS-K was added to HL-60 cells at 0, 0.25, 0.5, 0.75, and 1.0 μM concentrations. […] Similar results were obtained in U937 cells under similar conditions.

[1] = HL-60 assay system, comparison with chemotherapeutic agents, read-out: IC50, growth inhibition

O=[N+]([O-])c1ccc(Cl)c([N+](=O)[O-])c1 [1-Chloro-2,4-dinitrobenzene, reference compound]
IC50 (HL-60, read-out: IC50, growth inhibition): ~6.7 µM

CCCCS(=N)(=O)CCC(N)C(=O)O (stereo not shown) [BSO, buthionine sulfoximine, reference compound]
effect on cell growth: did not appear to significantly affect cell growth

O=[N+]([O-])c1ccc(ON=[N+]([O-])N2CCN(c3ccccc3)CC2)c([N+](=O)[O-])c1 [JXC-2-40, O^2-(2,4-dinitrophenyl) 1-[4-phenylpiperazin-1-yl]diazen-1-ium-1,2-diolate]
inhibition of cell growth: good inhibitors of cell growth

O=[N+]([O-])c1ccc(ON=[N+]([O-])N2CCN(c3ncccn3)CC2)c([N+](=O)[O-])c1 [JXC-2-56, O^2-(2,4-dinitrophenyl) 1-[4-(pyrimidin-2-yl)piperazin-1-yl]diazen-1-ium-1,2-diolate]
inhibition of cell growth: good inhibitors of cell growth

CC(=O)N[C@@H](CS)C(=O)O [NAC, N-acetyl-L-cysteine, reference compound]
effect on cell growth: did not appear to significantly affect cell growth

COc1cccc2c1C(=O)c1c(O)c3c(c(O)c1C2=O)C[C@@](O)(C(C)=O)C[C@@H]3O[C@H]1C[C@H](N)[C@H](O)[C@H](C)O1 [daunorubicin, reference compound]
IC50 [1]: 0.01 µM

COc1cc([C@@H]2c3cc4c(cc3[C@@H](O[C@@H]3O[C@@H]5CO[C@@H](C)O[C@H]5[C@H](O)[C@H]3O)[C@H]3COC(=O)[C@H]23)OCO4)cc(OC)c1O [etoposide, reference compound]
IC50 [1]: 0.3 µM
